Laboratory results: the supplement of paper PMC10307832

What was measured:
Assay in all cases: relative viability (nuclei count vs DMSO), 5 days (fraction); higher = more cells survive
[1] = compound: Nc1ccn([C@@H]2O[C@H](CO)[C@@H](O)C2(F)F)c(=O)n1 [Gemcitabine] + N=C(N)NC(=N)NCCc1ccccc1 [Phenformin] (partner 250 µM)
Outline: (§1)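 After 5 days of treatment, lung cancer cells in 1536-well plates were fixed and stained in a single step (final 0.05% Triton X-100, 1% formaldehyde, 1 ug/ml Hoechst) and their nuclei counted on 4× images. Treatment had been applied by pin tool the day after seeding as one drug alone or as a fixed anchor-drug dose with five library-drug doses (not always all listed) in √10 steps. Relative viability is the nuclei count of treated wells divided by that of vehicle wells, and values are medians of duplicate plates.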

[2] = compound: Nc1ccn([C@@H]2O[C@H](CO)[C@@H](O)C2(F)F)c(=O)n1 [Gemcitabine] + COc1cccc2cc(-c3nc([C@H]4CC[C@H](C(=O)O)CC4)n4ncnc(N)c34)[nH]c12 [OSI-027] (partner 0.5 µM)
Outline: as §1

[3] = compound: Nc1ccn([C@@H]2O[C@H](CO)[C@@H](O)C2(F)F)c(=O)n1 [Gemcitabine] + CC(=O)Nc1cccc(-n2c(=O)n(C3CC3)c(=O)c3c(Nc4ccc(I)cc4F)n(C)c(=O)c(C)c32)c1 [Trametinib] (partner 0.02 µM)
Outline: as §1

[4] = compound: Nc1ccn([C@@H]2O[C@H](CO)[C@@H](O)C2(F)F)c(=O)n1 [Gemcitabine] + C[C@@H](Oc1cc(-c2cnn(C3CCNCC3)c2)cnc1N)c1c(Cl)ccc(F)c1Cl [Crizotinib] (partner 1 µM)
Outline: as §1

Row | Cell Line | relative viability ([1]; first compound 0.001 µM) | relative viability ([1]; first compound 0.003162 µM) | relative viability ([1]; first compound 0.01 µM) | relative viability ([1]; first compound 0.03162 µM) | relative viability ([1]; first compound 0.1 µM) | relative viability ([2]; first compound 0.001 µM) | relative viability ([2]; first compound 0.003162 µM) | relative viability ([2]; first compound 0.01 µM) | relative viability ([2]; first compound 0.03162 µM) | relative viability ([2]; first compound 0.1 µM) | relative viability ([3]; first compound 0.001 µM) | relative viability ([3]; first compound 0.003162 µM) | relative viability ([3]; first compound 0.01 µM) | relative viability ([3]; first compound 0.03162 µM) | relative viability ([3]; first compound 0.1 µM) | relative viability ([4]; first compound 0.001 µM) | relative viability ([4]; first compound 0.003162 µM) | relative viability ([4]; first compound 0.01 µM) | relative viability ([4]; first compound 0.03162 µM) | relative viability ([4]; first compound 0.1 µM)
1 | NCI-H2170 | 0.426 | 0.424 | 0.363 | 0.196 | 0.144 | 0.714 | 0.662 | 0.632 | 0.292 | 0.136 | 1.02 | 0.907 | 0.785 | 0.167 | 0.109 | 1.39 | 1.23 | 0.615 | 0.161 | 0.155
2 | NCI-H2228 | 0.304 | 0.168 | 0.126 | 0.111 | 0.0895 | 0.614 | 0.24 | 0.129 | 0.122 | 0.0908 | 0.587 | 0.248 | 0.156 | 0.0861 | 0.111 | 0.615 | 0.326 | 0.233 | 0.141 | 0.166
3 | NCI-H2347 | 0.381 | 0.346 | 0.304 | 0.275 | 0.221 | 0.434 | 0.431 | 0.307 | 0.242 | 0.24 | 0.305 | 0.255 | 0.276 | 0.258 | 0.2 | 0.756 | 0.704 | 0.623 | 0.452 | 0.477
4 | NCI-H2405 | 0.405 | 0.26 | 0.247 | 0.192 | 0.173 | 0.641 | 0.314 | 0.32 | 0.211 | 0.196 | 0.689 | 0.67 | 0.457 | 0.211 | 0.211 | 0.846 | 0.775 | 0.564 | 0.245 | 0.22
